According to BigSolDB 2.1:

A solubility (mole fraction) (in acetone, 253.15 K) of 0.0592, a solubility (mole fraction) (in acetone, 258.15 K) of 0.0639 and a solubility (mole fraction) (in acetone, 263.15 K) of 0.0703 were found for `NC(=O)c1ccccc1O` in this work. It also gave a solubility (mole fraction) (in acetone, 268.15 K) of 0.077, a solubility (mole fraction) (in acetone, 273.15 K) of 0.0839 and a solubility (mole fraction) (in acetone, 278.15 K) of 0.0911. For the same compound, the solubility (mole fraction) (in acetone, 283.15 K) was 0.0986, the solubility (mole fraction) (in acetonitrile, 243.15 K) was 0.005 and the solubility (mole fraction) (in acetonitrile, 248.15 K) was 0.006. It also gave a solubility (mole fraction) (in acetonitrile, 253.15 K) of 0.0071, a solubility (mole fraction) (in acetonitrile, 258.15 K) of 0.0087 and a solubility (mole fraction) (in acetonitrile, 263.15 K) of 0.0108. For the same compound, the solubility (mole fraction) (in acetonitrile, 268.15 K) was 0.012, the solubility (mole fraction) (in acetonitrile, 273.15 K) was 0.0143 and the solubility (mole fraction) (in acetonitrile, 278.15 K) was 0.017. The solubility (mole fraction) (in acetonitrile, 283.15 K) was 0.0199, the solubility (mole fraction) (in ethyl acetate, 253.15 K) was 0.0305 and the solubility (mole fraction) (in ethyl acetate, 258.15 K) was 0.0335. For the same compound, the solubility (mole fraction) (in ethyl acetate, 263.15 K) was 0.0374, the solubility (mole fraction) (in ethyl acetate, 268.15 K) was 0.0406 and the solubility (mole fraction) (in ethyl acetate, 273.15 K) was 0.0446. It also gave a solubility (mole fraction) (in ethyl acetate, 278.15 K) of 0.0497, a solubility (mole fraction) (in ethyl acetate, 283.15 K) of 0.0547 and a solubility (mole fraction) (in methanol, 253.15 K) of 0.012. For the same compound, the solubility (mole fraction) (in methanol, 258.15 K) was 0.0136, the solubility (mole fraction) (in methanol, 263.15 K) was 0.0157 and the solubility (mole fraction) (in methanol, 268.15 K) was 0.0181. It also gave a solubility (mole fraction) (in methanol, 273.15 K) of 0.0204, a solubility (mole fraction) (in methanol, 278.15 K) of 0.0233 and a solubility (mole fraction) (in methanol, 283.15 K) of 0.0266.

A solubility (mole fraction) (in acetone, 253.15 K) of 0.0913, a solubility (mole fraction) (in acetone, 258.15 K) of 0.0978 and a solubility (mole fraction) (in acetone, 263.15 K) of 0.108 were found for `O=C(O)c1ccccc1O` in this work. The solubility (mole fraction) (in acetone, 268.15 K) was 0.114, the solubility (mole fraction) (in acetone, 273.15 K) was 0.122 and the solubility (mole fraction) (in acetone, 278.15 K) was 0.138. It also gave a solubility (mole fraction) (in acetone, 283.15 K) of 0.143, a solubility (mole fraction) (in acetonitrile, 243.15 K) of 0.0052 and a solubility (mole fraction) (in acetonitrile, 248.15 K) of 0.0061. It also gave a solubility (mole fraction) (in acetonitrile, 253.15 K) of 0.0071, a solubility (mole fraction) (in acetonitrile, 258.15 K) of 0.0084 and a solubility (mole fraction) (in acetonitrile, 263.15 K) of 0.01. The solubility (mole fraction) (in acetonitrile, 268.15 K) was 0.012, the solubility (mole fraction) (in acetonitrile, 273.15 K) was 0.0141 and the solubility (mole fraction) (in acetonitrile, 278.15 K) was 0.0159. The solubility (mole fraction) (in acetonitrile, 283.15 K) was 0.0185, the solubility (mole fraction) (in ethyl acetate, 253.15 K) was 0.0554 and the solubility (mole fraction) (in ethyl acetate, 258.15 K) was 0.0651. It also gave a solubility (mole fraction) (in ethyl acetate, 263.15 K) of 0.075, a solubility (mole fraction) (in ethyl acetate, 268.15 K) of 0.086 and a solubility (mole fraction) (in ethyl acetate, 273.15 K) of 0.09. It also gave a solubility (mole fraction) (in ethyl acetate, 278.15 K) of 0.099, a solubility (mole fraction) (in ethyl acetate, 283.15 K) of 0.107 and a solubility (mole fraction) (in methanol, 253.15 K) of 0.0605. For the same compound, the solubility (mole fraction) (in methanol, 258.15 K) was 0.065, the solubility (mole fraction) (in methanol, 263.15 K) was 0.0699 and the solubility (mole fraction) (in methanol, 268.15 K) was 0.075. The solubility (mole fraction) (in methanol, 273.15 K) was 0.083, the solubility (mole fraction) (in methanol, 278.15 K) was 0.09 and the solubility (mole fraction) (in methanol, 283.15 K) was 0.1.
